Experimental findings from PubChem BioAssay AID1996 are described below.

SMILES strings stand for the structures. ≈ marks a conversion by molar mass, not a printed value.

For this series the following is noted: buffer; pH 7.4; 200.0 µM.
Usually solubility (kinetic) stands for the concentration staying in solution when a stock, usually in DMSO, is diluted into the medium. The compound `O=C1CSC(c2ccccc2F)N1c1ccccc1F` (configuration not stated) gave a kinetic solubility of 3.2 µg/mL (≈ 11 µM). For the compound `Cc1ccccc1NC(=O)COC(=O)[C@@H]1CCCN1C(=O)c1cccs1`, the solubility (kinetic) was over 55.9 µg/mL. `CNCCc1ccccc1`: the kinetic solubility was under 0.3 µg/mL. Compound `Cn1c(-c2ccccc2)cc2ccccc21` displayed a solubility (kinetic) of 0.6 µg/mL (≈ 2.89 µM). `CC1=C(C(=O)OC2CCCCC2)C(c2ccc(O)cc2)NC(=O)N1` (configuration not stated) returned a kinetic solubility of over 49.6 µg/mL. `CC1CC(C)(C)NC(=S)N1CC(=O)NCc1ccc2c(c1)OCO2` (configuration not stated): the kinetic solubility is 36.2 µg/mL (≈ 104 µM). Compound `CCCOc1ccccc1/C=C1\SC(N)=NC1=O` came in with a solubility (kinetic) of 2.1 µg/mL (≈ 8.01 µM). The compound `Cc1nc(SCC(=O)N2CCCC2=O)nc(C)c1C` gave a solubility (kinetic) of over 41.9 µg/mL. Compound `COc1cc2c(cc1NC(=O)CCC(=O)O)oc1ccccc12` yielded a solubility (kinetic) of 46.7 µg/mL (≈ 149 µM). The result for `Cc1ccc(N2CC(C(=O)Nc3ccc4c(c3)OCO4)CC2=O)cc1C` (configuration not stated) reads 1.8 µg/mL (≈ 5.11 µM); that for `O=[N+]([O-])c1ccc2c(c1N1CCCCC1)=NC1(CCCCC1)[N+]=2[O-]`, 47.1 µg/mL (≈ 143 µM). The compound `O=C1N(c2ccccc2)C(=Nc2ccccc2)SC12CC2` showed a kinetic solubility of 41.5 µg/mL (≈ 141 µM). Turning to `CC1CCN(CCc2nc3ccccc3[nH]2)CC1`, the solubility (kinetic) was determined as 33.7 µg/mL (≈ 138 µM). `O=C(c1sccc1Cl)N1CCN(Cc2ccc3c(c2)OCO3)CC1`: the solubility (kinetic) was over 54.7 µg/mL. `Cn1nccc1NC(=O)Nc1ccc(OC(F)(F)F)cc1`: the solubility (kinetic) was over 45 µg/mL. `COc1cc(N=Cc2c(CO)cnc(C)c2O)cc(OC)c1OC` yielded a kinetic solubility of 49.2 µg/mL (≈ 148 µM).

`O=C(Oc1c(-c2ccccc2)c(=O)n2c3c(cccc13)CC2)c1ccccc1` displayed a solubility (kinetic) of 4.8 µg/mL (≈ 13.1 µM). The result for `CC(=O)c1cccc(NC(=O)CCNC(=O)c2ccccc2Cl)c1` reads over 51.7 µg/mL; that for `O=C(Nc1ccc2c(c1)C(=O)OC2)c1ccc(Cl)cc1Cl`, 3 µg/mL (≈ 9.31 µM); that for `CCOC(=O)c1cccc(NC(=O)CCc2ccccc2)c1`, 33.1 µg/mL (≈ 111 µM). Regarding `CN(CC(=O)Nc1ccc(F)cc1)CC(=O)N1CCCCCC1`, the solubility (kinetic) was determined as 44.8 µg/mL (≈ 139 µM).

Compound `COc1ccc(C(=O)O/N=C(/c2ccccc2)c2ccncc2)cc1` showed a solubility (kinetic) of 5.6 µg/mL (≈ 16.8 µM). The result for `Cc1cc(C(=O)Cn2cnc3cc(F)ccc3c2=O)c(C)n1C1CC1` reads 0.9 µg/mL (≈ 2.65 µM); that for `c1csc(-c2nc(CN3CCSCC3)cs2)c1`, 32.8 µg/mL (≈ 116 µM); that for `Cn1c(SCc2cccnc2)nc2c(c1=O)SCC2`, over 43.7 µg/mL. On to `CC(=O)Nc1ccccc1C(=O)OCc1ccccc1F`, for which the kinetic solubility stood at 32 µg/mL (≈ 111 µM). The compound `c1ccc2[nH]c(SCC3CCCCO3)nc2c1` (configuration not stated) displayed a solubility (kinetic) of over 37.3 µg/mL. The compound `Cc1onc(-c2c(F)cccc2Cl)c1C(=O)OCC(=O)N1C(C)CCCC1C` (configuration not stated) showed a solubility (kinetic) of 41.7 µg/mL (≈ 102 µM).

`CCSc1ncc(Cl)c(C(=O)Nc2ccccc2OC)n1` had a kinetic solubility of under 0.2 µg/mL. As for `CC1CN(C(=O)c2cc3cc([N+](=O)[O-])ccc3oc2=O)CC(C)O1` (configuration not stated), the solubility (kinetic) amounted to 46.1 µg/mL (≈ 139 µM).

Compound `CC1CCC2(CC1)SCC(=O)N2c1ccc(F)cc1` (configuration not stated) registered a kinetic solubility of 39.5 µg/mL (≈ 141 µM). The figure for `CN(CC(=O)Nc1ccc(F)cc1)C(=O)c1ccc(OCc2cn3ccccc3n2)cc1` is 10.4 µg/mL (≈ 24 µM); for `CCn1c(=O)c2sccc2n(Cc2ccc(C)cc2)c1=O` it is 0.4 µg/mL (≈ 1.33 µM). The figure for `O=C(O)COc1ccc(NC(=O)C(c2ccccc2)c2ccccc2)cc1` is over 54.2 µg/mL; for `N#CC1c2ccccc2C=CN1C(=O)c1ccccc1` (configuration not stated) it is 27.6 µg/mL (≈ 106 µM).

`COCCNc1oc(/C=C/c2ccccc2)nc1C#N` registered a solubility (kinetic) of over 40.4 µg/mL.

In turn, `COC(=O)CCCNC(=O)c1ccccn1` registered a solubility (kinetic) of over 33.3 µg/mL. The figure for `CC1CCCCC12NC(=O)N(CC(=O)NCc1ccccc1)C2=O` (configuration not stated) is over 49.4 µg/mL; for `CC1C(=O)N2CCCc3cc(NC(=O)COc4ccccc4)cc1c32` (configuration not stated) it is 50.2 µg/mL (≈ 149 µM); for `O=C(c1ccc(F)cc1)c1ccc(-c2ccc(F)cc2)nc1` it is 0.9 µg/mL (≈ 3.05 µM). Turning to `CCOC(=O)C1CCCN(Cc2nc(C3CC3)no2)C1` (configuration not stated), the solubility (kinetic) came out at 36.5 µg/mL (≈ 131 µM). The result for `Clc1cccc2c1CCN(Cc1nc(-c3cnccn3)no1)C2` reads 33.9 µg/mL (≈ 103 µM); that for `CC(C)(C)C(=O)N1CCN(c2nc3ccccc3o2)CC1`, over 43.1 µg/mL; that for `CCOC(=O)Cn1cc(C#N)c2ccccc21`, over 34.2 µg/mL. As to `Cc1ccccc1Sc1ccc([N+](=O)[O-])cn1`, the kinetic solubility is 7.4 µg/mL (≈ 30 µM). The result for `CS(=O)(=O)CCSc1ncccc1C(=O)NCc1cccs1` reads 53.1 µg/mL (≈ 149 µM); that for `Fc1ccc(-c2ncc3ccccn23)cc1`, 14.3 µg/mL (≈ 67.4 µM). The compound `CCCN1CCC(NC(=O)Cc2ccc(C)cc2)CC1` registered a solubility (kinetic) of 39.7 µg/mL (≈ 145 µM). Turning to `CCOC(=O)Cn1c(=O)oc2cc(S(=O)(=O)NC(C)(C)CC)ccc21`, the kinetic solubility stood at 53.8 µg/mL (≈ 145 µM). `CN(C)c1ccc(CNCc2cccnc2)cc1` came in with a solubility (kinetic) of 33.3 µg/mL (≈ 138 µM). The figure for `CCOc1ccccc1NC(=O)CN1C(=O)C(C)SC(C)C1=O` (configuration not stated) is 34.5 µg/mL (≈ 103 µM). Consider `O=C(CN1C(=O)c2ccccc2C1=O)Nc1cccc(Cl)c1`, for which the solubility (kinetic) was 21.2 µg/mL (≈ 67.4 µM).
